Laboratory results from patent US20260240869A1, “ANTIPSEUDOMONAL FUSIDIC ACID COMPOUNDS” (priority 2022, published 2026).
In brackets after ≈: the same amount, converted by molar mass.

Key:
[1] = test system: E. coli MG1655; assay: MIC, E. coli MG1655; assay type: cell-based; settings: Escherichia coli, MG1655; Table 9; read-out: MIC E. coli MG1655
Description: (§1) Antimicrobial Susceptibility Tests. Susceptibility testing was performed in biological triplicate, using the microdilution broth method as outlined by the Clinical and Laboratory Standards Institute. Bacteria were cultured with cation-adjusted Meuller-Hinton broth (Sigma-Aldrich; catalogue number: 90922) or Luria-Bertani (LB) broth (Lennox) in round-bottom 96-well plates (Corning; catalogue number: 3788).

[2] = test system: S. aureus ATCC 29213; assay: MIC, S. aureus ATCC 29213; assay type: cell-based; settings: Staphylococcus aureus, ATCC29213; Table 9; read-out: MIC S. aureus ATCC 29213
Description: as §1

[3] = test system: P. aeruginosa PAO1; assay: MIC, CLSI broth microdilution, P. aeruginosa PAO1; assay type: cell-based, Pseudomonas aeruginosa
Description: as §1

[4] = test system: P. aeruginosa PAO1; assay: NPN outer membrane permeability assay; assay type: cell-based, Pseudomonas aeruginosa; settings: treatment for ten minutes
From the text: Further, the fluorescent probe N-phenylnapthylamine (NPN) was used to assess outer membrane permeability changes upon treatment with FA, gentamicin, and FA prodrug. NPN is membrane impermeable and is only weakly fluorescent in aqueous solutions. Upon entry to the cell and interacting with phospholipids, significant fluorescence is observed. […] This residual membrane depolarizing antibacterial activity can be observed in the FA polyamine (FIG. 4a) and the diacylated compound (Table 9).

Compound: CC(=O)O[C@H]1C[C@@]2(C)[C@@H](C[C@@H](OC(C)=O)[C@H]3[C@@]4(C)CC[C@@H](OC(C)=O)[C@@H](C)[C@@H]4CC[C@@]32C)/C1=C(\CCC=C(C)C)C(=O)O [FA diacetate]
- MIC [1]: > 512 µg/mL
- MIC [2]: 64 µg/mL

Compound: CC(=O)O[C@H]1C[C@@]2(C)[C@@H](C[C@@H](OC(C)=O)[C@H]3[C@@]4(C)CC[C@@H](OC(C)=O)[C@@H](C)[C@@H]4CC[C@@]32C)/C1=C(\CCC=C(C)C)C(=O)O/N=C(\N)CNCCCNCCCNCCCN [FA prodrug-diacetate]
- MIC [1]: 16 µg/mL (≈ 19 µM)
- MIC ([3]; Pseudomonas aeruginosa, PAO1, Table 9, read-out: MIC P. aeruginosa PAO1): 32 µg/mL (≈ 38 µM)
- MIC [2]: 16 µg/mL (≈ 19 µM)

Compound: Gentamicin
- Fold change (MIC) ([3]; 5 mM MgCl2/CAMH versus CAMH (Table 10)): 32X
- MIC P. aeruginosa PAO1, CAMH ([3]; CAMH (Table 10)): 0.25 µg/mL
- shift in MIC on co-treatment with 5 mM MgCl2 ([3]; P. aeruginosa PAO1): 32 -fold
- MIC P. aeruginosa PAO1, 5 mM MgCl2/CAMH ([3]; co-treatment 5 mM MgCl2 in CAMH (Table 10)): 8
- NPN fluorescence (outer membrane permeability) [4]: dose-dependent increase
